The nature of the data set: Example 5 pharmacokinetic analysis in ferret, plasma concentration by LC-MS/MS. In kind it is in vivo. As to the method: Outbred female and ferrets 28 months old and weighing between 650-802 g were obtained from Japan SLC, Inc. Identification was conducted by labeling sequential number in front of each cage. Animals were monitored at least once daily for their clinical observations, and had ad libitum access to pellet feed (LabDiet High Density Ferret Diet, Lab Supply, USA) and water. Ferrets at endpoint were euthanized by exsanguination under anesthesia by inhalation with isoflurane (Pfizer). Ferret studies were performed in Shionogi Pharmaceutical Research Center, Shionogi & Co., Ltd. (Osaka, Japan), according to the animal study protocol which was approved by the Institutional Animal Care and Use Committee in Shionogi.
The active form baloxavir acid (S-033447, hereafter BXA) was provided by Test Substance Control Personnel, Shionogi & Co., Ltd., Japan. The vehicle for BXA delivery was methyl cellulose (Fuji-Film Wako, Japan) in 0.5 w/v % aqueous solution prepared with sterile water (hereafter MC solution). BXA in suspension with MC solution (1 mg/mL) was prepared using an agate mortar and pestle, and was delivered to reversibly anaesthetised animals in a single treatment consisting of 4 subcutaneous injections at 4 locations on the dorsal region (total dose 4 mg/kg per animal). […]
The plasma concentration of BXA was determined by LC-MS/MS, consisting of LC-20A system (Shimadzu Corporation, Japan) and API 5000 (AB SCIEX, USA). […]
Precursor/product transitions (m/z) of 484/247 and 490/247 were monitored for BXA and internal standard, BXA-racemate-d4^18O, respectively. […]
The plasma concentrations of BXA for each individual ferret were calculated by Analyst software (AB SCIEX, USA). The mean value and standard deviation were also calculated using individual data by Microsoft Excel (Microsoft Co., USA).

Structures are written as SMILES.

For the compound `O=C1c2c(O)c(=O)ccn2N([C@@H]2c3ccccc3SCc3c2ccc(F)c3F)[C@@H]2COCCN12` [baloxavir, baloxavir acid], the concentration at 168 h (plasma, subcutaneous, single s.c. suspension 4 mg/kg, 168 hours postdose, read-out: mean plasma concentration at last sampling point) was found to be 9.08 ng/mL. Besides, the “time at which mean plasma concentration reached the maximum” value (single s.c. suspension 4 mg/kg) was 3 hours postdose. For the same compound, the “mean plasma concentration, maximum” value (single s.c. suspension 4 mg/kg (4 locations, 1 mg/kg per location), 3 hours postdose) stood at 26.1 ng/mL.

The record behind these values is patent US11911394B2, “Compound and method for the prevention of transmission of influenza virus” (Hoffmann-La Roche Inc., priority 2019, dated 2024).
